# Measured values taken from the supplement of paper PMC10307832.
# How the values were obtained:
# Assay in all cases: relative viability (nuclei count vs DMSO), 5 days (fraction); higher = more cells survive
# [1] = system: HARA
# How it was run: (§1)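 Lung cancer cell lines in 1536-well plates got either a single drug or a fixed anchor-drug dose together with five library-drug doses (not always all listed) in √10 steps, by pin tool, on the day after seeding. Nuclei were counted after 5 days, and relative viability is the treated-to-vehicle ratio of nuclei counts. Values are medians of duplicate plates.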
# [2] = system: NCI-H460
# How it was run: as §1
# [3] = system: ABC-1
# How it was run: as §1
# [4] = system: NCI-H3122
# How it was run: as §1
# [5] = system: HCC-366
# How it was run: as §1
# [6] = system: NCI-H661
# How it was run: as §1
# [7] = system: CAL-12T
# How it was run: as §1
# [8] = system: 201T
# How it was run: as §1
# [9] = system: NCI-H1650
# How it was run: as §1
# [10] = system: NCI-H1437
# How it was run: as §1
# [11] = system: NCI-H727
# How it was run: as §1
# [12] = system: PC-14
# How it was run: as §1
# [13] = system: BEN
# How it was run: as §1
# [14] = system: LOU-NH91
# How it was run: as §1
# [15] = system: EKVX
# How it was run: as §1
# [16] = system: NCI-H441
# How it was run: as §1
# [17] = system: COR-L 105
# How it was run: as §1
# [18] = system: NCI-H2009
# How it was run: as §1
# [19] = system: NCI-H1666
# How it was run: as §1
compound,measurement,setting,value
CCN(CC)CCCCNc1ncc2cc(-c3cc(OC)cc(OC)c3)c(NC(=O)NC(C)(C)C)nc2n1 + CC(C)C[C@H](NC(=O)[C@H](Cc1ccccc1)NC(=O)c1cnccn1)B(O)O [Bortezomib] (partner 0.002 µM),relative viability,[1]; first compound 0.01 µM,1.19
same,relative viability,[1]; first compound 0.03162 µM,1.12
same,relative viability,[1]; first compound 0.1 µM,1.26
same,relative viability,[1]; first compound 0.3162 µM,1.04
same,relative viability,[1]; first compound 1 µM,0.882
same,relative viability,[2]; first compound 0.01 µM,1.3
same,relative viability,[2]; first compound 0.03162 µM,1.33
same,relative viability,[2]; first compound 0.3162 µM,1.62
same,relative viability,[2]; first compound 1 µM,1.04
same,relative viability,[3]; first compound 0.01 µM,0.325
same,relative viability,[3]; first compound 0.03162 µM,0.343
same,relative viability,[3]; first compound 0.1 µM,0.342
same,relative viability,[3]; first compound 0.3162 µM,0.247
same,relative viability,[3]; first compound 1 µM,0.327
same,relative viability,[4]; first compound 0.01 µM,1.02
same,relative viability,[4]; first compound 0.03162 µM,1.07
same,relative viability,[4]; first compound 0.1 µM,1.1
same,relative viability,[4]; first compound 0.3162 µM,1.06
same,relative viability,[4]; first compound 1 µM,1.01
same,relative viability,[5]; first compound 0.01 µM,1.09
same,relative viability,[5]; first compound 0.03162 µM,1.06
same,relative viability,[5]; first compound 0.1 µM,1.48
same,relative viability,[5]; first compound 0.3162 µM,1.29
same,relative viability,[5]; first compound 1 µM,0.968
same,relative viability,[6]; first compound 0.01 µM,0.892
same,relative viability,[6]; first compound 0.03162 µM,0.811
same,relative viability,[6]; first compound 0.1 µM,0.745
same,relative viability,[6]; first compound 0.3162 µM,0.922
same,relative viability,[6]; first compound 1 µM,0.634
same,relative viability,[7]; first compound 0.03162 µM,1.02
same,relative viability,[7]; first compound 0.1 µM,1.03
same,relative viability,[7]; first compound 0.3162 µM,1.26
same,relative viability,[7]; first compound 1 µM,0.769
same,relative viability,[8]; first compound 0.01 µM,1.03
same,relative viability,[8]; first compound 0.03162 µM,1.14
same,relative viability,[8]; first compound 0.1 µM,1.14
same,relative viability,[8]; first compound 0.3162 µM,1.15
same,relative viability,[8]; first compound 1 µM,0.976
same,relative viability,[9]; first compound 0.01 µM,0.201
same,relative viability,[9]; first compound 0.03162 µM,0.217
same,relative viability,[9]; first compound 0.1 µM,0.233
same,relative viability,[9]; first compound 0.3162 µM,0.203
same,relative viability,[9]; first compound 1 µM,0.197
same,relative viability,[10]; first compound 0.01 µM,0.536
same,relative viability,[10]; first compound 0.03162 µM,0.533
same,relative viability,[10]; first compound 0.1 µM,0.593
same,relative viability,[10]; first compound 0.3162 µM,0.554
same,relative viability,[10]; first compound 1 µM,0.472
same,relative viability,[11]; first compound 0.01 µM,1.39
same,relative viability,[11]; first compound 0.03162 µM,0.871
same,relative viability,[11]; first compound 0.1 µM,0.809
same,relative viability,[11]; first compound 0.3162 µM,1.2
same,relative viability,[11]; first compound 1 µM,0.783
same,relative viability,[12]; first compound 0.01 µM,0.894
same,relative viability,[12]; first compound 0.03162 µM,0.855
same,relative viability,[12]; first compound 0.1 µM,0.947
same,relative viability,[12]; first compound 0.3162 µM,0.962
same,relative viability,[12]; first compound 1 µM,0.843
same,relative viability,[13]; first compound 0.01 µM,0.819
same,relative viability,[13]; first compound 0.03162 µM,0.528
same,relative viability,[13]; first compound 0.1 µM,1.03
same,relative viability,[13]; first compound 0.3162 µM,0.766
same,relative viability,[13]; first compound 1 µM,0.715
same,relative viability,[14]; first compound 0.01 µM,0.531
same,relative viability,[14]; first compound 0.03162 µM,0.49
same,relative viability,[14]; first compound 0.1 µM,0.498
same,relative viability,[14]; first compound 0.3162 µM,0.515
same,relative viability,[14]; first compound 1 µM,0.424
same,relative viability,[15]; first compound 0.01 µM,1.15
same,relative viability,[15]; first compound 0.03162 µM,0.957
same,relative viability,[15]; first compound 0.1 µM,1.2
same,relative viability,[15]; first compound 0.3162 µM,1.21
same,relative viability,[15]; first compound 1 µM,1.1
same,relative viability,[16]; first compound 0.01 µM,0.475
same,relative viability,[16]; first compound 0.03162 µM,0.45
same,relative viability,[16]; first compound 0.1 µM,0.817
same,relative viability,[16]; first compound 0.3162 µM,0.489
same,relative viability,[16]; first compound 1 µM,0.492
same,relative viability,[17]; first compound 0.01 µM,0.691
same,relative viability,[17]; first compound 0.03162 µM,0.824
same,relative viability,[17]; first compound 0.1 µM,0.859
same,relative viability,[17]; first compound 0.3162 µM,0.968
same,relative viability,[17]; first compound 1 µM,0.732
same,relative viability,[18]; first compound 0.01 µM,0.958
same,relative viability,[18]; first compound 0.03162 µM,1.06
same,relative viability,[18]; first compound 0.1 µM,1.1
same,relative viability,[18]; first compound 0.3162 µM,1.07
same,relative viability,[18]; first compound 1 µM,0.966
same,relative viability,[19]; first compound 0.01 µM,0.74
same,relative viability,[19]; first compound 0.03162 µM,0.848
same,relative viability,[19]; first compound 0.1 µM,0.837
same,relative viability,[19]; first compound 0.3162 µM,0.724
same,relative viability,[19]; first compound 1 µM,0.733
